Test results reported in ChEMBL document CHEMBL1134727, “Synthesis and structure-activity relationship of diarylamide derivatives as selective inhibitors of the proliferation of human coronary artery smooth muscle cells” (Bioorg Med Chem Lett, 2001).

What was measured:
[1] = Inhibition of human coronary artery smooth muscle cells (SMC's) proliferation, induced by platelet-derived growth factor (PDGF-BB) 20 ng mL.; type: functional
[2] = Evaluated for inhibition of proliferation of human coronary artery endothelial cells (ECs), induced by 5 % FBS.; type: functional, cell-based; details: Endothelial cell
[3] = Ratio of inhibitory activity on proliferation of human coronary artery smooth muscle cells to that of human coronary artery endothelial cells; type: functional, Endothelial cell

SMILES | IC50 [1] [nM] | IC50 [2] [nM] | Ratio [3]
COc1cc(C(=O)Nc2ccc(Cl)cc2C(N)=O)cc(OC)c1OC | > 2000 |  | 
CCOC(=O)c1ccccc1NC(=O)/C=C/c1ccc(OC)c(OC)c1 | > 50000 | 9500 | 
CCOC(=O)c1cc(OC)c(OC)cc1NC(=O)c1cc(OC(C)=O)c(OC(C)=O)c(OC(C)=O)c1 | > 2000 |  | 
COc1cc(C(=O)Nc2cc(C)ccc2C(N)=O)cc(OC)c1OC | > 2000 |  | 
COc1cc(C(=O)Nc2cc([N+](=O)[O-])ccc2C(N)=O)cc(OC)c1OC | 1600 | < 2000 | 
CCOC(=O)c1cc(OC)c(OC)cc1NC(=O)c1ccc(OC(C)=O)c(OC(C)=O)c1 | 2200 |  | 
CCOC(=O)c1cc(OC)c(OC)cc1NC(=O)c1ccc(O)c(N)c1 | > 2000 |  | 
COc1ccc(C(=O)Nc2cc(OC)c(OC)cc2C(=O)O)cc1OC | > 2000 |  | 
COc1cc(C(=O)Nc2ccccc2C(N)=O)cc(OC)c1OC | > 2000 |  | 
CCOC(=O)c1cc(OC)c(OC)cc1NC(=O)c1ccc(OC(C)=O)c(OC)c1 | 2800 |  | 
COc1ccc(C(=O)Nc2cc(OC)c(OC)cc2C(N)=O)cc1OC | 720 | > 10000 | >14
CCOC(=O)c1cc(OC)c(OC)cc1NC(=O)c1ccc(OC)cc1 | 610 | < 2000 | 
COc1ccc(NC(=O)c2ccc(OC)c(OC)c2)cc1OC | > 2000 |  | 
CNC(=O)c1cc(OC)c(OC)cc1NC(=O)c1ccc(OC)c(OC)c1 | > 2000 |  | 
CCOC(=O)c1cc(OC)c(OC)cc1NC(=O)c1ccccc1OC | 800 | 3800 | 5
CCOC(=O)c1cc(OC)c(OC)cc1NC(=O)c1ccc(OC)c(OC)c1 | 850 | 6000 | 7
COc1cc(C(=O)Nc2cc(N)ccc2C(N)=O)cc(OC)c1OC | > 2000 |  | 
COc1ccc(C(=O)Nc2cc(OC)c(OC)cc2C(=O)N(C)C)cc1OC | > 2000 |  | 
COc1ccc(C(=O)Nc2cc(OC)c(OC)cc2C#N)cc1OC | > 2000 |  | 
COc1cc(C(=O)Nc2cc(F)c(F)cc2C(N)=O)cc(OC)c1OC | 2000 | > 10000 | >5
CCOC(=O)c1cc(OC)c(OC)cc1NC(=O)c1ccc(OC(C)=O)cc1 | 1300 | 5200 | 4
CCOC(=O)c1cc(OC)c(OC)cc1NC(=O)c1ccc(OC)c(OC)c1OC | 410 | 2900 | 7
CCOC(=O)c1cc(OC)c(OC)cc1NC(=O)c1cc(OC)c(OC)c(OC)c1 | 310 | 4600 | 15
CCOC(=O)c1cc(OC)c(OC)cc1NC(=O)c1ccc(O)c([N+](=O)[O-])c1 | 1800 | 7200 | 4
COc1ccc(/C=C/C(=O)Nc2ccccc2C(N)=O)cc1OC | 16700 | 34500 | 2
CCOC(=O)c1cc(OC)c(OC)cc1NC(=O)c1cc(OC)c(OC(C)=O)c(OC)c1 | 3100 |  | 
CCOC(=O)c1cc(OC)c(OC)cc1NC(=O)c1cccc(OC)c1 | 1600 | 6100 | 4
CCOC(=O)c1cc(OC)c(OC)cc1NC(=O)Cc1ccc(OC)c(OC)c1 | 800 | 4700 | 6
CCOC(=O)c1cc(OC)c(OC)cc1NC(=O)/C=C\c1ccc(OC)c(OC)c1 | 1200 | 4100 | 4
COc1ccc(/C=C/C(=O)Nc2ccccc2C(=O)O)cc1OC [TRANILAST] | 24500 | 19100 | 0.8
